Literature values as cited in patent US20040038984A1, “Composition for male & female sexual arousal” (priority 2002, published 2004).

Conditions: following oral administration

In the case of Cn1cc([S+](C)[O-])c(=O)c2ccc(F)cc21 (stereo not shown) [flosequinan], the “time of peak plasma concentrations” value is listed as 1 to 2 h.
